Data as given in ChEMBL document CHEMBL1134446, “Polyamine analogue antidiarrheals: a structure-activity study” (J Med Chem, 2001).
Several values for one entry are separate records, joined by “and”; a condition that tells them apart may be missing. Identical values can stand only once.

Key:
Assay type in all cases: functional
Rattus norvegicus [1] = experiment: Stool output of rat over the 6-h collection period when a dose of 25 mg/kg (57.6 uM) was given orally; details: route oral
Rattus norvegicus [2] = experiment: Percent reduction was determined by using the ratio of mean of treated animal to that of control animal at a dose of 5 mg/kg
Rattus norvegicus [3] = experiment: Weight loss of rat over the 6-h experimental period when a dose of 12.5 mg/kg (28.9 uM) was given orally; details: route oral
Rattus norvegicus [4] = experiment: Stool output of rat over the 6-h collection period when a dose of 0 mg/kg (0 administered
Rattus norvegicus [5] = experiment: Weight loss of rat over the 6-h experimental period when a dose of 25 mg/kg (57.6 uM) was given orally; details: route oral
Rattus norvegicus [6] = experiment: Weight loss of rat over the 6-h experimental period when a dose of 0 mg/kg (0 uM) was given orally; details: route oral
Rattus norvegicus [7] = experiment: Percent reduction was determined by using the ratio of mean of treated animal to that of control animal at a dose of 50 mg/kg
Rattus norvegicus [8] = experiment: Percent reduction was determined by using the ratio of mean of treated animal to that of control animal at a dose of 12.5 mg/kg
Rattus norvegicus [9] = experiment: Weight loss of rat over the 6-h experimental period when a dose of 50 mg/kg (115.6 uM) was given orally; details: route oral
Rattus norvegicus [10] = experiment: Stool output of rat over the 6-h collection period when a dose of 0 mg/kg (0 uM) was given orally; details: route oral
Rattus norvegicus [11] = experiment: Stool output of rat over the 6-h collection period when a dose of 12.5 mg/kg (28.9 uM) was given orally; details: route oral
Rattus norvegicus [12] = experiment: Stool output of rat over the 6-h collection period when a dose of 2.5 mg/kg (5.8 administered
Rattus norvegicus [13] = experiment: Weight loss of rat over the 6-h experimental period when a dose of 5 mg/kg (11.6 administered
[14] = The acute toxicity was determined in female CD1 mice after (ip) administration; details: Mus musculus
Rattus norvegicus [15] = experiment: Percent reduction was determined by using the ratio of mean of treated animal to that of control animal at a dose of 2.5 mg/kg
Rattus norvegicus [16] = experiment: Percent reduction was determined by using the ratio of mean of treated animal to that of control animal at a dose of 25 mg/kg
Rattus norvegicus [17] = experiment: Weight loss of rat over the 6-h experimental period when a dose of 1 mg/kg (2.3 administered
Rattus norvegicus [18] = experiment: Stool output of rat over the 6-h collection period when a dose of 5 mg/kg (11.6 administered
Rattus norvegicus [19] = experiment: Stool output of rat over the 6-h collection period when a dose of 1 mg/kg (2.3 administered
Rattus norvegicus [20] = experiment: Stool output of rat over the 6-h collection period when a dose of 50 mg/kg (115.6 uM) was given orally; details: route oral
Rattus norvegicus [21] = experiment: Percent reduction was determined by using the ratio of mean of treated animal to that of control animal at a dose of 1 mg/kg
Rattus norvegicus [22] = experiment: Weight loss of rat over the 6-h experimental period when a dose of 0 mg/kg (0 administered
Rattus norvegicus [23] = experiment: Weight loss of rat over the 6-h experimental period when a dose of 2.5 mg/kg (5.8 administered
Rattus norvegicus [24] = experiment: Stool output of rat over the 6-h collection period when a dose of 6.11 mg/kg (11.6 administered
Rattus norvegicus [25] = experiment: Weight loss of rat over the 6-h experimental period when a dose of 1.22 mg/kg (2.3 administered
Rattus norvegicus [26] = experiment: Weight loss of rat over the 6-h experimental period when a dose of 6.11 mg/kg (11.6 administered
Rattus norvegicus [27] = experiment: Weight loss of rat over the 6-h experimental period when a dose of 30.4 mg/kg (57.8 administered
Rattus norvegicus [28] = experiment: Stool output of rat over the 6-h collection period when a dose of 1.22 mg/kg (2.3 administered
Rattus norvegicus [29] = experiment: Stool output of rat over the 6-h collection period when a dose of 30.4 mg/kg (57.8 administered
Rattus norvegicus [30] = experiment: Stool output of rat over the 6-h collection period when a dose of 5.3 mg/kg (11.6 administered
Rattus norvegicus [31] = experiment: Stool output of rat over the 6-h collection period when a dose of 1.1 mg/kg (2.3 administered
Rattus norvegicus [32] = experiment: Stool output of rat over the 6-h collection period when a dose of 2.7 mg/kg (5.8 administered
Rattus norvegicus [33] = experiment: Weight loss of rat over the 6-h experimental period when a dose of 2.7 mg/kg (5.8 administered
Rattus norvegicus [34] = experiment: Weight loss of rat over the 6-h experimental period when a dose of 1.1 mg/kg (2.3 administered
Rattus norvegicus [35] = experiment: Weight loss of rat over the 6-h experimental period when a dose of 5.3 mg/kg (11.6 administered
Rattus norvegicus [36] = experiment: Percent reduction was determined by using the ratio of mean of treated animal to that of control animal at a dose of 5.3 mg/kg
Rattus norvegicus [37] = experiment: Percent reduction was determined by using the ratio of mean of treated animal to that of control animal at a dose of 10.7 mg/kg
Rattus norvegicus [38] = experiment: Stool output of rat over the 6-h collection period when a dose of 10.7 mg/kg (23.2 administered
Rattus norvegicus [39] = experiment: Weight loss of rat over the 6-h experimental period when a dose of 10.7 mg/kg (23.2 administered
Rattus norvegicus [40] = experiment: Weight loss of rat over the 6-h experimental period when a dose of 15 mg/kg (47.6 administered
Rattus norvegicus [41] = experiment: Stool output of rat over the 6-h collection period when a dose of 15 mg/kg (47.6 administered
Rattus norvegicus [42] = experiment: Stool output of rat over the 6-h collection period when a dose of 25 mg/kg (57.8 administered
Rattus norvegicus [43] = experiment: Weight loss of rat over the 6-h experimental period when a dose of 25 mg/kg (57.8 administered
Rattus norvegicus [44] = experiment: Weight loss of rat over the 6-h experimental period when a dose of 1 mg/kg (2.3 uMl) was administered
Rattus norvegicus [45] = experiment: Stool output of rat over the 6-h collection period when a dose of 4.6 mg/kg (11.6 administered
Rattus norvegicus [46] = experiment: Weight loss of rat over the 6-h experimental period when a dose of 4.6 mg/kg (11.6 administered
Rattus norvegicus [47] = experiment: Weight loss of rat over the 6-h experimental period when a dose of 94 mg/kg (232.5 uM) was given orally; details: route oral
Rattus norvegicus [48] = experiment: Weight loss of rat over the 6-h experimental period when a dose of 5.9 mg/kg (11.6 administered
Rattus norvegicus [49] = experiment: Stool output of rat over the 6-h collection period when a dose of 23.5 mg/kg (58.13 uM) was given orally; details: route oral
Rattus norvegicus [50] = experiment: Weight loss of rat over the 6-h experimental period when a dose of 47 mg/kg (116.25 uM) was given orally; details: route oral
Rattus norvegicus [51] = experiment: Stool output of rat over the 6-h collection period when a dose of 47 mg/kg (116.25 uM) was given orally; details: route oral
Rattus norvegicus [52] = experiment: Stool output of rat over the 6-h collection period when a dose of 5.9 mg/kg (11.6 administered
Rattus norvegicus [53] = experiment: Weight loss of rat over the 6-h experimental period when a dose of 23.5 mg/kg (58.13 uM) was given orally; details: route oral
Rattus norvegicus [54] = experiment: Stool output of rat over the 6-h collection period when a dose of 94 mg/kg (232.5 uM) was given orally; details: route oral

CC(C)NCCCNCCCCNCCCNC(C)C
Stool output (Rattus norvegicus [1]): <0 g (350g of rat weight)-1 | Reduction (Rattus norvegicus [2]): 63% and 87% | Weight loss (Rattus norvegicus [3]): <8.7 g | Stool output (Rattus norvegicus [4]): 6.8 g (350g of rat weight)-1 | Weight loss (Rattus norvegicus [5]): <3.6 g | Weight loss (Rattus norvegicus [6]): 17.2 g | Reduction (Rattus norvegicus [7]): 81% and 100% | Reduction (Rattus norvegicus [8]): 49% and 50% | Weight loss (Rattus norvegicus [9]): <3.2 g | Stool output (Rattus norvegicus [10]): 7.2 g (350g of rat weight)-1 | Stool output (Rattus norvegicus [11]): <3.6 g (350g of rat weight)-1 | Stool output (Rattus norvegicus [12]): <0 g (350g of rat weight)-1 | Weight loss (Rattus norvegicus [13]): <4.4 g | LD50 [14]: 125 mg/kg | Reduction (Rattus norvegicus [15]): 64% and 100% | Reduction (Rattus norvegicus [16]): 79% and 100% | Weight loss (Rattus norvegicus [17]): <6.9 g | Stool output (Rattus norvegicus [18]): <0.9 g (350g of rat weight)-1 | Stool output (Rattus norvegicus [19]): <2.9 g (350g of rat weight)-1 | Stool output (Rattus norvegicus [20]): <0 g (350g of rat weight)-1 | Reduction (Rattus norvegicus [21]): 42% and 57% | Weight loss (Rattus norvegicus [22]): 11.8 g | Weight loss (Rattus norvegicus [23]): <4.2 g

c1ccc(CNCCCNCCCCNCCCNCc2ccccc2)cc1
Stool output (Rattus norvegicus [24]): >6.3 g (350g of rat weight)-1 | Stool output (Rattus norvegicus [4]): 6.2 g (350g of rat weight)-1 | Weight loss (Rattus norvegicus [25]): >13.5 g | Weight loss (Rattus norvegicus [26]): >13.1 g | Weight loss (Rattus norvegicus [27]): >10.4 g | Stool output (Rattus norvegicus [28]): >6.4 g (350g of rat weight)-1 | Stool output (Rattus norvegicus [29]): >5 g (350g of rat weight)-1 | Weight loss (Rattus norvegicus [22]): 13.3 g

CCCCNCCCNCCCCNCCCNCCCC
Stool output (Rattus norvegicus [30]): >5.5 g (350g of rat weight)-1 | Stool output (Rattus norvegicus [31]): >3.5 g (350g of rat weight)-1 | Stool output (Rattus norvegicus [32]): >4.2 g (350g of rat weight)-1 | Stool output (Rattus norvegicus [4]): 4.6 g (350g of rat weight)-1 | Weight loss (Rattus norvegicus [33]): >11.2 g | Weight loss (Rattus norvegicus [34]): >10.2 g | Weight loss (Rattus norvegicus [35]): >12 g | Weight loss (Rattus norvegicus [22]): 13.6 g

CC(C)CNCCCNCCCCNCCCNCC(C)C
Stool output (Rattus norvegicus [30]): >5.1 g (350g of rat weight)-1 | Reduction (Rattus norvegicus [36]): 39% | Reduction (Rattus norvegicus [37]): 78% | Stool output (Rattus norvegicus [4]): 7.2 g (350g of rat weight)-1 | Stool output (Rattus norvegicus [38]): >1.6 g (350g of rat weight)-1 | Weight loss (Rattus norvegicus [39]): <5 g | Weight loss (Rattus norvegicus [35]): <11.1 g | Weight loss (Rattus norvegicus [22]): 18.2 g

c1cc(NCCCCNc2ccncc2)ccn1
Stool output (Rattus norvegicus [4]): 5.6 g (350g of rat weight)-1 | Weight loss (Rattus norvegicus [40]): >14.4 g | Stool output (Rattus norvegicus [41]): >6.9 g (350g of rat weight)-1 | Weight loss (Rattus norvegicus [22]): 13.3 g

CCCNCCCNCCCCNCCCNCCC
Reduction (Rattus norvegicus [2]): 56% and 55% | Stool output (Rattus norvegicus [4]): 6 g (350g of rat weight)-1 | Stool output (Rattus norvegicus [42]): <0 g (350g of rat weight)-1 | Weight loss (Rattus norvegicus [13]): <5.7 g | Weight loss (Rattus norvegicus [43]): <4 g | Weight loss (Rattus norvegicus [44]): <9.1 g | Reduction (Rattus norvegicus [16]): 69% and 100% | Stool output (Rattus norvegicus [18]): <2.7 g (350g of rat weight)-1 | Stool output (Rattus norvegicus [19]): >3.8 g (350g of rat weight)-1 | Reduction (Rattus norvegicus [21]): 31% and 37% | Weight loss (Rattus norvegicus [22]): 13.1 g

C(CCNC1CCNCC1)CNC1CCNCC1
Stool output (Rattus norvegicus [4]): 4.2 g (350g of rat weight)-1 | Stool output (Rattus norvegicus [45]): >4.7 g (350g of rat weight)-1 | Weight loss (Rattus norvegicus [46]): >9.5 g | Weight loss (Rattus norvegicus [22]): 10 g

FC(F)(F)CNCCCNCCCCNCCCNCC(F)(F)F
Weight loss (Rattus norvegicus [47]): <2.8 g | Stool output (Rattus norvegicus [4]): 7.2 g (350g of rat weight)-1 | Weight loss (Rattus norvegicus [6]): 15.1 g | Weight loss (Rattus norvegicus [48]): >17.2 g | Stool output (Rattus norvegicus [49]): <1.9 g (350g of rat weight)-1 | Stool output (Rattus norvegicus [10]): 7.2 g (350g of rat weight)-1 | Weight loss (Rattus norvegicus [50]): <3.8 g | Stool output (Rattus norvegicus [51]): <0.6 g (350g of rat weight)-1 | Stool output (Rattus norvegicus [52]): >7.5 g (350g of rat weight)-1 | Weight loss (Rattus norvegicus [22]): 18.2 g | Weight loss (Rattus norvegicus [53]): <6.2 g | Stool output (Rattus norvegicus [54]): <0 g (350g of rat weight)-1
